We go through two molecules from patent US20250388597A1, “BIFUNCTIONAL PHOTOCROSSLINKING PROBES FOR COVALENT CAPTURE OF PROTEIN-NUCLEIC ACID COMPLEXES IN CELLS” (UNIVERSITY OF SOUTHERN CALIFORNIA, priority 2022, published 2025).

SMILES strings stand for the structures. “Also recorded” adds a separate entry of the source.

The experiment has as its target T1, NFAT1/DNA complex (Homo sapiens, UniProt Q13469).
T1 construct: human NFAT1 protein (residue 399-676, NFAT1-DBD)
T1 sequence (Q13469 399-676): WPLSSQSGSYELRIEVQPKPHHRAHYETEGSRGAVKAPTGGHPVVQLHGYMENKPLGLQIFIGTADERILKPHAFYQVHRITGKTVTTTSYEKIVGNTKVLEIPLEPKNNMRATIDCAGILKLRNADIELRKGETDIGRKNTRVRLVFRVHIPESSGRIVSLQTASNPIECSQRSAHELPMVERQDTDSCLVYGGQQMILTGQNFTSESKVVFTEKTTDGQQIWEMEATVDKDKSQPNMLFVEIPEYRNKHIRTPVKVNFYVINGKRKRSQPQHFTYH
Put plainly: Identification of covalent attachment site on crosslinked NFAT1 (trypsin digestion, Edman sequencing). The conditions noted are these: for peptide identified by Edman sequencing of the DNA-peptide conjugate: trypsin digested crosslinked NFAT1/DNA complex. As to the method: FIG. 9A-FIG. 9D depicts characterization of BFPX-mediated crosslinking reaction, to identify the covalent attachment site on the protein. (FIG. 9A) A large scale of crosslinking reaction corresponding to lane 11 of FIG. 7 was carried out. The reaction mixture was separated on FPLC using a mono-Q column (yellow trace: conductance, red trace: salt gradient (A:10 mM Hepes pH 7.4; B: 10 mM Hepes 7.4, IM NaCl), blue trace: UV254 nm absorbance). […] The flow-through contains only free NFAT (lane 4), peak I contains predominantly the complex (lane 5) and peak II contains predominantly free DNA (lane 6). (FIG. 9C) The purified NFAT/DNA complex was digested with trypsin and the DNA-peptide conjugate was purified and sequenced by Edman degradation: Top panel, a schematic picture of the DNA binding domain of human NFAT1 (residue 399-676) used in the study, the sequence of loop 478-491, RITGKTVTTTSYEK (SEQ ID NO.: 1), is shown above; Middle panel: a schematic picture of the covalently capture NFAT/DNA complex, the DNA sequence (5′-[…]-3′ (SEQ ID NO: 2) and its complementary strand 3′-[…]-5′ (SEQ ID NO: 3)) used in the study is shown with the two potential probe (yellow wedge and start) binding site (TpA) indicated). The underlined region is the NFAT binding motif. Bottom panel: Edman sequencing results ([…], T480, and G481) identify the loop of 478-491, RITGKTVTTTSYEK (SEQ ID NO: 1), as the attachment site. […]
FIG. 13A depicts characterization of the BFPX-mediated crosslinking reaction: Identification of covalent attachment sites on the crosslinked proteins. […] The reaction mixtures were separated on FPLC using a mono-Q column (yellow trace: conductance, red trace: salt gradient (buffer A:10 mM Hepes pH 7.4; buffer B: 10 mM Hepes 7.4, 1 M NaCl), blue trace: UV254 nm absorbance). […]
We analyzed the covalent attachment sites on the NFAT/DNA complexes crosslinked by SPB-AAD and SPB-PEG4-AAD using a work flow shown in FIG. 13A. […] The sequencing results were generally noisy with multiple amino acids detected in each cycle. […]

In the case of `C#CCCC1(CCNC(=O)CCOCCOCCOCCOCCNC(=O)CCCOc2c3occc3cc3ccc(=O)oc23)N=N1` [SPB-PEG4-AAD, N-(2-(3-(but-3-yn-1-yl)-3H-diazirin-3-yl)ethyl)-1-(4-((7-oxo-7H-furo[3,2-g]chromen-9-yl)oxy)butanamido)-3,6,9,12-tetraoxapentadecan-15-amide], the “peptide identified by Edman sequencing of the DNA-peptide conjugate” value is reported as “APTGGH”. Further, the “covalent attachment site on NFAT1” value (human NFAT1 DBD residue 399-676) was “residues 434 and 452; also recorded: loop of 434-452”.

For the molecule `C#CCCC1(CCNC(=O)CCCOc2c3occc3cc3ccc(=O)oc23)N=N1` [SPB-AAD, N-(2-(3-(but-3-yn-1-yl)-3H-diazirin-3-yl)ethyl)-4-((7-oxo-7H-furo[3,2-g]chromen-9-yl)oxy)butanamide], the “peptide identified by Edman sequencing of the DNA-peptide conjugate” value is “IVGN and Ile, Thr, and Gly”.
